The nature of this series: Water solubility examination. The series is classed as physicochemical. The settings on record: 1.44 mg of oridonin in 4 ml water. On the procedure:
Water solubility of the present nanoparticle is examined. 1.44 mg of oridonin is dissolved in 4 ml water. […] Large amount of white insoluble white oridonin powder is observed. On the other hand, oridonin functionalized selenium nanoparticle containing 1.68 mg of oridonin is prepared according to the present invention and dissolved in 4 ml water. […] The oridonin functionalized selenium nanoparticle aqueous solution is orangey red in color and no insoluble residue is observed.

As to Oridonin, the water solubility result is reported as “insoluble in water”.

These data come from US9624237B2 (priority 2015, dated 2017).
